Data on seven compounds can be found in patent US10111854B2, “Synthesis and use of amine-containing flavonoids as potent anti-leishmanial agents” (The Hong Kong Polytechnic University, priority 2014, dated 2018).

Data set [1] concerns L. major FV1 promastigotes. In words: Anti-promastigote activity (MTS assay), L. major FV1. It is filed as cell-based. The following applies: Leishmania major, 72 hours. As for the experimental part:
(§1) Promastigotes of visceral L. donovani Ld39 and LdHU3, and cutaneous L. amazonensis LV78, L. braziliensis UA847 and L. major FV1 were employed in the study. All strains were cultured in Schneider's Drosophila Medium (Invitrogen), pH 6.9 supplemented with 10% (v/v) heat inactivated fetal bovine serum (Hyclone) with 4 mM glutamine (Sigma) and 25 μg/mL gentamicin solution (Invitrogen) at 27° C. for 4 days. RAW264.7 cells were cultured in supplemented DMEM media with 10% heat inactivated FBS and 100 U/mL penicillin and 100 μg/mL of streptomycin. They were maintained at 37° C. in a humidified atmosphere with 5% CO2. The cells were split constantly after a confluent monolayer has been formed. The cells were harvested by a cell scraper.
(§2) Anti-promastigote activity was determined according to previous procedures (1) by Cell Titer 96® Aqueous Assay (Promega) that employed a tetrazolium compound. Promastigotes were seeded into 96-well flat bottom microtiter plate at 1×10^5 cells per well in a final volume of 100 μL medium and incubated with a series of concentrations of synthetic FM. Parasites were incubated at 27° C. for 72 hours. After 72 hours of incubation, 10 μL of MTS:PMS mixture [MTS:2-(4,5-Dimethylthiazol-2-yl-)-5-[3-(carboxymethoxy)phenyl]-2-(4-sulfophenyl)-2H-tetrazolium); PMS: phenazine methosulfate both purchased from Sigma] was added into each well of microtiter plate. The plate was then incubated at 27° C. for 4 hours for color development. After 4 hours of incubation, the OD values were determined at 490 nm using automatic microtiter plate reader (Bio-Rad).
(§3) IC50 values of known antileishmanials and the amine-containing flavonoid monomers of the present invention to promastigotes (L. amazonensis LV78, L major FV1, L. donovani HU3, L. donovani 39), macrophages (Raw 264.7 and PEM) and mouse fibroblast (L929) were determined. The anti-promastigotes activities and cytotoxicity of the amine-containing flavonoid monomers of the invention are shown in Table 1.

The nature of data set [2]: Cytotoxicity, L929 fibroblasts. It is filed as cell-based, mouse. To be noted: mouse. As for the experimental part:
as §3

Data set [3] has as its system L. donovani HU3 amastigotes. Description: Anti-amastigote activity in infected PEM, L. donovani HU3. It is filed as cell-based. To be noted: for IC50: Leishmania donovani, 72 h, infected PEM, 3 days, Giemsa, SSG-sensitive. As for the experimental part:
(§4) Mouse peritoneal elicited macrophages (PEM) were obtained as previously described (2). A round cover slip (12 mm in diameter) was placed into each well of 24-well culture plate. Mouse PEM were resuspended in supplemented DMEM media containing 10% heat inactivated FBS (v/v), 100 U/mL penicillin and 100 μg/mL streptomycin and seeded into each well at a cell density of 1×10^5 cells per 500 μL. Macrophages were allowed to attach overnight. Non-adherent cells were removed by gentle washing with un-supplemented DMEM media twice. Adherent macrophages were infected with late-log promastigotes at a parasite-to-macrophage ratio of 20:1 overnight at 37° C. with 5% CO2. Non-internalized promastigotes were removed by washing twice with un-supplemented DMEM media. Infected macrophages were further incubated in 500 μL of supplemented DMEM media in the presence or absence of FM for 72 hours at 37° C. After incubation, cover slips were stained with Giemsa and the percentage of macrophages infected and number of amastigotes per 100 macrophages was enumerated.
(§5) PEM cells were infected with late-log promastigotes (L. amazonensis LV78, L. braziliensis UA847, L. donovani HU3, L. donovani 39) for 24 hr at 37° C. Infected macrophages were then treated with various antileishmanials and incubated for 3 days at 37° C. After 3 days, the cover slips were stained with Giemsa. The number of amastigotes per 100 macrophages were determined and used to calculate IC50 values.

Data set [4] deals with amastigotes (L. amazonensis LV78, L. braziliensis UA847, L. donovani HU3, L. donovani 39). In words: Anti-amastigote activity, strain not given. It is filed as cell-based. The following applies: strain not specified; visceral and cutaneous Leishmania; read-out: IC50 against amastigotes. As for the experimental part: as §4, §5
Data set [5] has as its system L. amazonensis LV78 promastigotes. Description: Anti-promastigote activity (MTS assay), L. amazonensis LV78. It is filed as cell-based. The following applies: Leishmania amazonensis, 72 hours. As for the experimental part:
as §1, §2, §3

Data set [6] relates to L. donovani HU3 promastigotes. Description: Anti-promastigote activity (MTS assay), L. donovani HU3. The following applies: Leishmania donovani, 72 hours. It is filed as cell-based. As for the experimental part:
as §1, §2, §3

The subject of data set [7] is promastigotes (L. amazonensis LV78, L major FV1, L. donovani HU3, L. donovani 39). In words: Anti-promastigote activity, strain not given. It is filed as cell-based. The following applies: Leishmania amazonensis; strain not specified; read-out: IC50 against promastigotes. As for the experimental part: as §2, §3
For data set [8], the system named is L. amazonensis LV78 amastigotes. Description: Anti-amastigote activity in infected PEM, L. amazonensis LV78. It is filed as cell-based. To be noted: for IC50: Leishmania amazonensis, 72 h, infected PEM, 3 days, Giemsa; for Selective index (a)/(b): IC50 RAW264.7 over IC50 L. amazonensis LV78 amastigotes. As for the experimental part: as §4, §5
For data set [9], the system named is L. donovani Ld39 promastigotes. Description: Anti-promastigote activity (MTS assay), L. donovani Ld39. It is filed as cell-based. To be noted: Leishmania donovani, 72 hours. As for the experimental part:
as §1, §2, §3

Data set [10] deals with L. donovani Ld39 amastigotes (SSG-resistant). In words: Anti-amastigote activity in infected PEM, L. donovani Ld39. It is filed as cell-based. The following applies: for IC50: Leishmania donovani, 72 h, infected PEM, 3 days, Giemsa, SSG-resistant; for Selective index (a)/(c): IC50 RAW264.7 over IC50 L. donovani Ld39 amastigotes. As for the experimental part: as §4, §5
Data set [11] in a line: Cytotoxicity, peritoneal elicited macrophages (PEM). It is filed as cell-based, mouse. The following applies: mouse, Cytotoxicity IC50, PEM. As for the experimental part:
as §4, §3

Take `CN(C)CCOCCOc1ccc(-c2cc(=O)c3ccccc3o2)cc1` [FM06, 2-(4-(2-(2-(dimethylamino)ethoxy)ethoxy)phenyl)-4H-chromen-4-one]: the half-maximal inhibitory concentration (IC50) is 3.6 ± 0.7 µM in [1]; greater than 33 µM in data set [2]; greater than 10 µM in [3]; less than 5 µM in data set [4]; 2 ± 0.3 µM in data set [5]; 2.2 ± 0.5 µM in [6]. Also, the IC50 is less than 5 µM in [7], 4.5 ± 1.8 µM in data set [8], 1.1 ± 0.1 µM in data set [9] and greater than 10 µM in [10].

With `O=c1cc(-c2ccc(OCCOCCNCc3ccncc3)cc2)oc2ccccc12` [FM08, 2-(4-(2-(2-((pyridin-4-ylmethyl)amino)ethoxy)ethoxy)phenyl)-4H-chromen-4-one], the IC50 was 9.5 ± 1.2 µM in data set [1]; greater than 33 µM in data set [2]; greater than 10 µM in data set [3]; 8.3 ± 1.9 µM in data set [5]; 1.4 ± 0.4 µM in data set [6]; less than 5 µM in data set [7]. Further, the IC50 in data set [8] was 6.7 ± 1.8 µM; in data set [9], 2.7 ± 0.9 µM; in data set [10] it was greater than 10 µM.

For `O=c1cc(-c2ccc(OCC3CCN(Cc4ccncc4)CC3)cc2)oc2ccccc12` [FM13, 2-(4-((1-(pyridin-4-ylmethyl)piperidin-4-yl)methoxy)phenyl)-4H-chromen-4-one], the IC50 is 5.7 ± 3.1 µM in data set [1]; greater than 100 µM in data set [2]; greater than 10 µM in data set [3]; less than 5 µM in data set [4]; 3.5 ± 1.1 µM in data set [5]; 1.1 ± 0.6 µM in data set [6]. For the same compound, the IC50 in data set [7] is less than 5 µM; in data set [8], 2.5 ± 0.5 µM; in data set [9], 0.7 ± 0.2 µM; in [10], 3.3 µM. Further, the “Selective index (a)/(b)” value in [3] (IC50 RAW264.7 over IC50 L. donovani HU3 amastigotes) is recorded as greater than 10; in data set [8], greater than 40. Moreover, the “Selective index (a)/(c)” value in [10] is given as greater than 33.

As to `O=c1cc(-c2ccc(OCCN3CCCN(Cc4ccncc4)CC3)cc2)oc2ccccc12` [FM14, 2-(4-(2-(4-(pyridin-4-ylmethyl)-1,4-diazepan-1-yl)ethoxy)phenyl)-4H-chromen-4-one], the IC50 in data set [1] is 1.6 ± 0.6 µM; in [2], 10.6 µM; in data set [3], greater than 7 µM; in data set [4], less than 5 µM; in data set [5], 1.4 ± 0.3 µM; in data set [6], 0.3 ± 0.1 µM. Moreover, the IC50 in data set [7] was less than 5 µM; in data set [8], 1.9 ± 0.5 µM; in data set [9] it was 1.4 ± 0.9 µM; in [10] it was 8.4 µM. In addition, in data set [8], the “Selective index (a)/(b)” value came out at 11.4.

For the compound `NCCOCCOc1ccc(-c2cc(=O)c3ccccc3o2)cc1` [FM20, 2-(4-(2-(2-(amino)ethoxy)ethoxy)phenyl)-4H-chromen-4-one], the IC50 in [1] was 59.8 ± 6.9 µM; in [2], 41.5 ± 15.6 µM; in [11], 57.5 ± 9.2 µM; in data set [5], 57.6 ± 37.3 µM; in data set [9], 34.9 ± 14.1 µM; in data set [10] it was 0.7 ± 0.1 µM. In addition, in [10], the “Selective index (a)/(c)” value was 22.6.

For the compound `O=c1cc(-c2ccc(OCCOCCN(CCOCCO)Cc3ccncc3)cc2)oc2ccccc12` [FM21, 2-(4-(2-(2-((2-(2-hydroxyethoxy)ethyl)(pyridin-4-ylmethyl)amino)ethoxy)ethoxy)phenyl)-4H-chromen-4-one], the IC50 was 22.6 ± 10.9 µM in data set [1]; 24 µM in data set [2]; 58.5 ± 4.3 µM in [11]; 47.8 ± 18.7 µM in [5]; 4.5 µM in [8]; 3.4 ± 0.9 µM in data set [9]. In data set [10], this compound registered an IC50 of 0.33 µM. Moreover, the “Selective index (a)/(b), (a) measured using PEM” value in data set [8] (IC50 PEM over IC50 L. amazonensis LV78 amastigotes) amounted to 13. Moreover, the “Selective index (a)/(c), (a) measured using PEM” value in data set [10] (IC50 PEM over IC50 L. donovani Ld39 amastigotes) is recorded as 177.

Take `NC[C@@H]1O[C@H](O[C@H]2[C@@H](O)[C@H](O[C@@H]3[C@@H](O)[C@H](N)C[C@H](N)[C@H]3O[C@H]3O[C@H](CO)[C@@H](O)[C@H](O)[C@H]3N)O[C@@H]2CO)[C@H](N)[C@@H](O)[C@@H]1O` [Paromomycin, reference compound]: the IC50 in [11] was greater than 100 µM; in [9], 24.5 ± 2.4 µM; in data set [10] it was 41 ± 1.1 µM.
